Results on 5 compounds are retold here after ChEMBL document CHEMBL1154338, “Synthesis of modified homo-N-nucleosides from the reactions of mesityl nitrile oxide with 9-allylpurines and their influence on lipid peroxidation and thrombin inhibition” (Bioorg Med Chem Lett, 2009).

Experiment [1] can be described thus: Antioxidant activity assessed as inhibition of xanthine-xanthine oxidase generated superoxide anion radical production at 100 uM by nitroblue tetrazolium method. In kind it is functional. Set-up: scale not given: the % may be the effect or the level left.
Experiment [2] relates to Radical scavenging activity. Nature of the experiment: Antioxidant activity assessed as DPPH free radical scavenging activity at 0.1 mM after 60 mins. It counts as functional.
Experiment [3] concerns Radical scavenging activity. Nature of the experiment: Antioxidant activity assessed as DPPH free radical scavenging activity at 0.05 mM after 60 mins. It counts as functional.
Experiment [4] deals with Radical scavenging activity. Nature of the experiment: Antioxidant activity assessed as DPPH free radical scavenging activity at 0.05 mM after 20 mins. It counts as functional.
For experiment [5], the system named is Radical scavenging activity. The experiment in a line: Antioxidant activity assessed as DPPH free radical scavenging activity at 0.1 mM after 20 mins. In kind it is functional.
The nature of experiment [6]: Inhibition of soybean lipoxygenase. Set-up: species or system Glycine max.
A short description of experiment [7]: Antioxidant activity assessed as inhibition of lipid peroxidation at 100 uM. Set-up: scale not given: the % may be the effect or the level left. In kind it is functional.

With `O=C(O)/C=C/c1ccc(O)c(O)c1`, the Activity in experiment [1] was determined as 10%.

As for `CC(Cc1ccc(O)c(O)c1)C(C)Cc1ccc(O)c(O)c1` (stereo not given), the Activity in experiment [2] is 83%; in experiment [3], 72%; in experiment [4], 68%; in experiment [5] it was 81%.

In experiment [6], `Cc1cc(C)c(C2=NOC(Cn3cnc4c(N5CCOCC5)ncnc43)C2)c(C)c1` (stereo not given) returned a half-maximal inhibitory concentration (IC50) of 100 µM. Further, the Activity in experiment [2] stood at 4%; in experiment [5], 4%; in experiment [1], 1%; in experiment [7], 81%.

For `Cc1c(C)c2c(c(C)c1O)CCC(C)(C(=O)O)O2` (stereo not given), the Activity in experiment [7] came to 73%.

In turn, `Cc1cc(C)c(C2=NOC(Cn3cnc4c(N5CCCC5)ncnc43)C2)c(C)c1` (stereo not given) gave an IC50 in experiment [6] of 100 µM. The Activity in experiment [3] amounted to 11%; in experiment [4], 11%; in experiment [7], 52%.
